Test results reported in US7550471B2, “5-alkyl-7-aminotriazolopyrimidines, methods and intermediary product necessary for the production thereof, agents containing said compounds and the use thereof for fighting against harmful mushrooms” (BASF Aktiengesellschaft, priority 2002, dated 2009).

System: Alternaria solani
Assay: Activity against early blight of tomato caused by Alternaria solani
Assay type: in vivo
Conditions: 250 ppm active compound, tomato plants sprayed one day before infection, assessed after 5 days; untreated plants 90% infected
Method: The active compounds were formulated separately as a stock solution comprising 0.25% by weight of active compound in acetone or DMSO. 1% by weight of the emulsifier Uniperol® EL (wetting agent having emulsifying and dispersing action based on ethoxylated alkylphenols) was added to this solution. The stock solutions of the active compounds were diluted with water to the stated concentration. Leafs of potted plants of the cultivar “Groβe Fleischtomate St. Pierre” were sprayed to run off point with an aqueous suspension having the concentration of active compound stated below. The next day, the leaves were infected with an aqueous spore suspension of Alternaria solani in a 2% strength biomalt solution of a density of 0.17×10^6 spores/ml. The plants were then placed in a water-vapor-saturated chamber at 20-22° C. After 5 days, the early blight on the untreated but infected control plants had developed to such an extent that the infection could be determined visually in %.

## Cc1nc2ncnn2c(N2CCC(C)CC2)c1C1CCCC1 [Compound I-1, 5-methyl-6-cyclopentyl-7-(4-methyl-piperidin-1-yl)-[1,2,4]triazolo[1,5-a]pyrimidine]
  infection (early blight, determined visually in %): no infection
